Experimental data published in BindingDB's records for patent US20160046618 (Amgen, 2016).

What was measured:
[1] = biological target: T1, Beta-secretase 2 (Homo sapiens, UniProt Q9Y5Z0); test: In Vitro Enzymatic BACE1 and BACE2 FRET Assays
T1 sequence (Q9Y5Z0 whole entry): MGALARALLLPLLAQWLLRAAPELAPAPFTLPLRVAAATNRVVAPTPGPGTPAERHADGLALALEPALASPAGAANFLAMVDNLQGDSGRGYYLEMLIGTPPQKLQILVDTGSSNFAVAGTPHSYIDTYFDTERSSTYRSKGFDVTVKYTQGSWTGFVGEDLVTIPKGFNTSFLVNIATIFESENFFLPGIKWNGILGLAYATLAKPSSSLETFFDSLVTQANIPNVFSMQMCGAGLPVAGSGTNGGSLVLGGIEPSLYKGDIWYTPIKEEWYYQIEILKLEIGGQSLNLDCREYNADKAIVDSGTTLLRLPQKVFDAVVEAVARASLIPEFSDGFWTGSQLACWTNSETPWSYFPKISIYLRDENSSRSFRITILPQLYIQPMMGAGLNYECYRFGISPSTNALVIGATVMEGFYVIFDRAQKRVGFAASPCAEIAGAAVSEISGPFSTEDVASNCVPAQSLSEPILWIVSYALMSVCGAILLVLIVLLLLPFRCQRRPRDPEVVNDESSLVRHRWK
Procedure: (§1) The cDNAs for both human recombinant BACE1 and BACE2 with C-terminal 6-His Tags were cloned into transient protein expression vectors, which were subsequently transfected into mammalian cell lines. These recombinant proteins were further purified using Ni-NTA affinity chromatography (Qiagen). The assay buffer used in these screens is 0.05 M acetate, pH 4.5, 8% DMSO final, 100 uM genapol (which is a nonionic detergent, below its Critical Micelle Concentration). […] This assay is effectively started by the addition of FRET substrate (50 nM) and the combination is incubated for one hour. The FRET assay is terminated by addition of Tris buffer, which raises the pH to neutrality, and the fluorescence is determined. The FRET substrate is a peptide with commercially available fluorophore and quencher, on opposite sides of the BACE cleavage site.

[2] = biological target: Cathepsin D (Homo sapiens, UniProt P07339); test: In Vitro Enzymatic Cathepsin D (Cat D) FRET Assay
Cathepsin D, sequence (P07339 65-162 limits assumed): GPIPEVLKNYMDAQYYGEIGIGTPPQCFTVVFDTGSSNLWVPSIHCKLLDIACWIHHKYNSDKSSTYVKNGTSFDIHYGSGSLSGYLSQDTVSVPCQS
Cathepsin D, sequence (P07339 169-412 limits assumed): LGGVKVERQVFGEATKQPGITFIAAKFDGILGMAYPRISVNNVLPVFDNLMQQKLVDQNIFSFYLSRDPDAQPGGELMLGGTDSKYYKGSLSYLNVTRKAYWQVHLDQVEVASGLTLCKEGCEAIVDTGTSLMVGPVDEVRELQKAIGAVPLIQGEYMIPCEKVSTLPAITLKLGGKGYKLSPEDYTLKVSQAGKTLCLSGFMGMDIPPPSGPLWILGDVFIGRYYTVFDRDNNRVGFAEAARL
Procedure: Recombinant Cat D was expressed in CHO cells. The assay buffer for CathepsinD is 0.05 M citrate pH 3.5, 10% DMSO final, 5 mM CHAPS. […] The assays are effectively started by the addition of different FRET substrates (20 nM for Cat D) and the combination is incubated for one hour. The FRET assay is terminated with by addition of Tris buffer, which raises the pH to neutrality, and the fluorescence is determined. The FRET substrate is a peptide with commercially available fluorophore and quencher, on opposite sides of the BACE cleavage site. […] Proteolytic cleavage of the FRET substrate releases quenching of fluorescence (Cat D excitation 500 nm and emission 580 nm).

[3] = biological target: Beta-secretase 1 (Homo sapiens, UniProt P56817); test: In Vitro Enzymatic BACE1 and BACE2 FRET Assays
Beta-secretase 1, sequence (P56817 whole entry): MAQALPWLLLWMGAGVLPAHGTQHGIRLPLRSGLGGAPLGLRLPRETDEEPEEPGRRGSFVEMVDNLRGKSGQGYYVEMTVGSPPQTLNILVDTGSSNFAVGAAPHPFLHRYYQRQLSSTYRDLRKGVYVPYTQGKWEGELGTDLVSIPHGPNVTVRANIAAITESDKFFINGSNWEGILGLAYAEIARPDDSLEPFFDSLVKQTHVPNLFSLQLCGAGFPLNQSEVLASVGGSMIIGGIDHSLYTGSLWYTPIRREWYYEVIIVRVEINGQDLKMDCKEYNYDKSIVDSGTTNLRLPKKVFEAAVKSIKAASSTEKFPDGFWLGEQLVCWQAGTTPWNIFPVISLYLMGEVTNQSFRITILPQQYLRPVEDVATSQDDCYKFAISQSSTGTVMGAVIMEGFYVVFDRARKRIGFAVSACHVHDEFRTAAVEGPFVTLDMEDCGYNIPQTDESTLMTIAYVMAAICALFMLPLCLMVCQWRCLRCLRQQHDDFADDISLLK
Procedure: as §1

| IC50 [1] [µM] | IC50 [2] [µM] | IC50 [3] [µM] | SMILES |
| --- | --- | --- | --- |
| 0.0278 | 1220 |  | NC1=N[C@](CF)(c2cc(Nc3ncnc4cc(Cl)cnc34)ccc2F)[C@H]2C[C@@H]2S1 [US20160046618, Example 39] |
| < 0.00203 | 559 |  | Cc1cc(C#N)cnc1C(=O)Nc1cc(F)c(F)c([C@@]2(CF)N=C(N)S[C@@]3(C(F)F)C[C@@H]23)c1 [US20160046618, Example 94] |
| 0.124 | 905 | 0.00342 | C#C[C@H](C)Oc1cnc(C(=O)Nc2cc(F)c(F)c([C@@]3(C)N=C(N)S[C@@]4(CF)C[C@H]43)c2)c(C)n1 [US20160046618, Example 616] |
| 0.225 | 946 | 0.00492 | C#C[C@H](C)Oc1cnc(C(=O)Nc2cc(F)c(F)c([C@@]3(C)N=C(N)S[C@@]4(COC)C[C@H]43)c2)c(C)n1 [US20160046618, Example 622] |
| 0.522 | 196 | 0.0433 | C#C[C@H](C)Oc1cnc(C(=O)Nc2ccc(F)c([C@@]3(C)N=C(N)S[C@@]4(C(F)F)C[C@@H]34)c2)c(C)c1 [US20160046618, Example 648] |
| 0.0147 | 150 | 0.000264 | C#CCOc1cnc(C(=O)Nc2ccc(F)c([C@@]3(C)N=C(N)S[C@@]4(CF)C[C@H]43)c2)cn1 [US20160046618, Example 822] |
| 0.00538 | 1260 | 0.000621 | NC1=N[C@](CF)(c2cc(Nc3nccc4nc(OCc5ncco5)cnc34)ccc2F)[C@@H]2C[C@]2(c2c[nH]nn2)S1 [US20160046618, Example 957] |
| 0.555 | > 400 | 0.037 | C=CC(C)Oc1cnc(C(=O)Nc2ccc(F)c([C@@]3(C)N=C(N)S[C@@]4(COC)C[C@H]43)c2)cn1 (stereo not given in full) [US20160046618, Example 1063] |

| SMILES | IC50 [1] [µM] | IC50 [2] [µM] | IC50 [3] [µM] |
| --- | --- | --- | --- |
| C[C@]1(c2cc(NC(=O)c3ccc(Cl)cn3)cc(F)c2F)N=C(N)S[C@@]2(C(=O)O)C[C@H]21 [US20160046618, Example 899] | 0.00258 | > 400 | 0.00889 |
